Test results from US20250136607A1 (REGOR PHARMACEUTICALS, INC., priority 2021, published 2025).
pIC50: −log10 of the molar value. Like-named read-outs stand apart in the source and are kept apart here.

How the values were obtained:
[1] = system: Citrullinated Histone H3 in dHL-60 cells (differentiated HL-60); experiment: dHL-60 Cit-H3 ELISA assay; type: cell-based, human; settings: stimulation with 25 μM A23187 for 3 h, read-out: Average IC50 Abs
Experimental: Cell culture: HL-60 cells were grown in IMDM+20% FBS+1% PS. The suspension cells were split into 1:5 with fresh media every 2-3 days to maintain cell density between 1×10^5 to 1×10^6 viable cells/mL. HL-60 cells differentiation: HL-60 cells were diluted to 1×10^5 cells/mL and differentiated into neutrophil-like cells with 100 mM DMF treatment for 72 hours in flask at 37° C., 5% CO2. dHL-60 Cells plating: • 1) HL-60 cells were collected, and the plate was centrifuged at 1000 rpm for 5 min. • 2) The HL-60 cells were diluted to 1.25×10^6 cells/mL and plated into a 96-well plate with 80 μL/well (i.e., 1×10^5/well). The plate was then incubated in the incubator (5% CO2, 37° C.) for 30 min to allow cells to adhere. Compound treatment: • 1) Preparation of compound serial dilution (source plate 500×, final DMSO concentration: 0.2%): briefly, compounds were dissolved in 100% DMSO to a concentration of 20 mM (the stock solution) and a 3-fold serial dilution with 8-point doses was performed. • 2) A 10× compound solution was pipetted up and down; and 10 μL/well of compounds were added into each well and incubated for 30 min. Stimulation with 25 μM A23187: • 1) A solution of A23187 (250 μM) in complete IMDM (IMDM+10% FBS+1% PS) containing 150 U/mL S7 Nuclease was prepared. The obtained solution was added 10 μL/well into each well and incubated for 3 h in the incubator (5% CO2, 37° C.). • 2) The dHL-60 cells treated with 10 μL/well complete IMDM without A23187 worked as negative control. Sample preparation: • 1) EDTA (0.5 M, 2 μL/well) were added to all the wells to stop the reaction. • 2) The plate was centrifuged at 1000 rpm for 5 min to collect supernatant. • 3) The supernatant was then diluted at least 1:2 before adding to the ELISA plate for citrullinated H3 analysis.
The standard was reconstituted with 2 mL of Assay buffer to 500 ng/mL. The reconstituted standard was relatively unstable at 4° C. and should be used within 3 hr after reconstitution.
• 1) 100 μL of the standards or diluted samples were added to the wells on the ELISA plate. • 2) The plate was covered with Cover Sheet and incubated for 2 h at room temperaturert on an orbital shaker.
On the day of the assay, the reagent was thawed at room temperaturert. For one plate, 1.2 mL of HRP Conjugate were diluted into 10.8 mL of assay buffer. A diluted HRP Conjugate was prepared shortly before use.
• 1) The wells were empties and rinsed four times with 1× wash buffer with 300 μL/well (Low speed). The plate was inverted between wash steps to empty the plate. After the last wash, the inverted plate was gently tapped on absorbent paper to remove the residual wash buffer. • 2) 100 μL of the HRP Conjugate working solution were added to each well of the plate. • 3) The plate was covered with cover sheet and incubated for 1 h at RT on an orbital shaker.
• 1) The wells were empties and rinsed four times with 1× wash buffer with 300 μL/well (low speed). The plate was inverted between wash steps to empty the plate. […] 100 uL of HRP STOP solution were added to each well of the plate.
• 1) Wipe the bottom of the plate with a clean tissue to remove fingerprints, dirt, etc. • 2) Read the plate at a wavelength of 450 nm.
The percent (%) inhibition at each concentration of compound was calculated based on and relative to the signal in the HPE and ZPE wells contained within each assay plate. The HPE wells worked as […], and the ZPE wells didn't contain any compound but rather DMSO (final concentration=0.1%) as […]. The concentrations and % inhibition values for tested compounds were plotted and the concentration of compound required for 50% inhibition (IC50) was determined with a Four-parameter logistic dose response equation. The endpoint value (IC50) for the reference peptide/compound was evaluated in each experiment as a quality control measure. If the endpoint value is within 3-fold of the expected value then the experiment is deemed acceptable. […]

[2] = molecular target: Protein arginine deiminase 4 (PAD4) (Homo sapiens, UniProt Q9UM07); experiment: PAD4 ammonia release assay; type: biochemical; settings: for pIC50: PAD4 ammonia release assay, BAEE substrate, 60 min at RT, read-out: Average IC50 Abs
Outline: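 PAD4 (20 nM, 2× working solution) was preincubated with compound for 15 min at RT in 100 mM HEPES pH 8.0, 2 mM CaCl2, 50 mM NaCl, 0.1 mM TCEP, BSA at 1.25% DMSO. BAEE (600 μM, 2× mix) reacted 60 min, then OPA/DTT/EDTA detection for 120 min. IC50 came from a 4-parameter fit, normalized to 50 μM reference (100%) and DMSO (0%).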

Protein arginine deiminase 4 (PAD4), sequence (Q9UM07 whole entry): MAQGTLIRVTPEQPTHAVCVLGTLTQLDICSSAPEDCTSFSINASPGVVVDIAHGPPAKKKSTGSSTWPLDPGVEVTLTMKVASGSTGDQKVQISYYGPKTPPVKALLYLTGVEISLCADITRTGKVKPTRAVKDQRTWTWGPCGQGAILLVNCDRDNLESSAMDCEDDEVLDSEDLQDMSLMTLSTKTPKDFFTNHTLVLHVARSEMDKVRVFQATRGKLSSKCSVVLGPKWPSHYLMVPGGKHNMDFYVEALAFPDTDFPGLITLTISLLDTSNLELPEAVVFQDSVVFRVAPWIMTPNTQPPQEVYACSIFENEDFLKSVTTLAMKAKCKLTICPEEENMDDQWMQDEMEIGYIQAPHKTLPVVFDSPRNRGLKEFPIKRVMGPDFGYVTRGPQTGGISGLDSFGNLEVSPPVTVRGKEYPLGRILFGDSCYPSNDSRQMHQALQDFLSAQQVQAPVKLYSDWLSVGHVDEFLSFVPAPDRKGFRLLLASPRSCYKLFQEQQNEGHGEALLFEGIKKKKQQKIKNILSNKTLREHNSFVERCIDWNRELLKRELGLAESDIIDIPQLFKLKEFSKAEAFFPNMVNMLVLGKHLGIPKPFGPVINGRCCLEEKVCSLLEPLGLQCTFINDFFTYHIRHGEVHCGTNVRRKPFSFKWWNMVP

Compound | pIC50 ([1]; Homo sapiens, HL-60, 3 h) | pIC50 [2] | relative potency of separated isomers in the PAD4 biochemical assay ([2]; SFC-separated stereoisomer pairs) | pIC50 [1]
CCn1cc(Cn2c(-c3cc4cccc5c4n3CCN5CCCO)nc3cc(C(=O)N4C[C@H](N)C[C@@H](F)C4)cc(F)c32)cn1 [Example 38, ((3R,5R)-3-amino-5-fluoropiperidin-1-yl)(1-((1-ethyl-1H-pyrazol-4-yl)methyl)-7-fluoro-2-(1-(3-hydroxypropyl)-2,3-dihydro-1H-pyrrolo[1,2,3-de]quinoxalin-5-yl)-1H-benzo[d]imidazol-5-yl)methanone] | 5.30 to 6.30 | ≥ 7.00 | – | –
COc1cc(C(=O)N2C[C@H](N)C[C@@H](F)C2)cc2nc(-c3cc4cccc5c4n3CCN5CCCO)n(CC3CCC3)c12 [Example 48, ((3R,5R)-3-amino-5-fluoropiperidin-1-yl)(1-(cyclobutylmethyl)-2-(1-(3-hydroxypropyl)-2,3-dihydro-1H-pyrrolo[1,2,3-de]quinoxalin-5-yl)-7-methoxy-1H-benzo[d]imidazol-5-yl)methanone] | 6.30 to 7.00 | 6.30 to 7.00 | – | –
Cn1c(-c2cc3ccc4c(c3n2CC2CC2)NCCS4)nc2cc(C(=O)N3C[C@H]4CC[C@@H]3[C@@H]4N)cc(F)c21 [Example 161, ((1R,4R,7R)-7-amino-2-azabicyclo[2.2.1]heptan-2-yl)(2-(9-(cyclopropylmethyl)-1,2,3,9-tetrahydro-[1,4]thiazino[2,3-g]indol-8-yl)-7-fluoro-1-methyl-1H-benzo[d]imidazol-5-yl)methanone] | ≥ 7.00 | ≥ 7.00 | – | –
CCn1c(-c2cc3cccc4c3n2C(C)CN4CCCO)nc2cc(C(=O)N3C[C@H]4CC[C@@H]3[C@@H]4N)cc(OC)c21 (stereo partly drawn) [Example 68, ((1R,4R,7R)-7-amino-2-azabicyclo[2.2.1]heptan-2-yl)(1-ethyl-2-(1-(3-hydroxypropyl)-3-methyl-2,3-dihydro-1H-pyrrolo[1,2,3-de]quinoxalin-5-yl)-7-methoxy-1H-benzo[d]imidazol-5-yl)methanone] | 6.30 to 7.00 | 6.30 to 7.00 | – | –
Cn1c(-c2cc3ccc(C#N)c4c3n2[C@@H](C2CC2)CN4)nc2cc(C(=O)N3C[C@H]4CC[C@@H]3[C@@H]4N)cc(F)c21 (single isomer, unassigned) [Example 115] | ≥ 7.00 | ≥ 7.00 | – | –
Cn1c(-c2cc3ccc4cn[nH]c4c3n2CC2CC2)nc2cc(C(=O)N3C[C@H]4CC[C@@H]3[C@@H]4N)cc(F)c21 [Example 157, ((1R,4R,7R)-7-amino-2-azabicyclo[2.2.1]heptan-2-yl)(2-(8-(cyclopropylmethyl)-1,8-dihydropyrrolo[3,2-g]indazol-7-yl)-7-fluoro-1-methyl-1H-benzo[d]imidazol-5-yl)methanone] | ≥ 7.00 | ≥ 7.00 | – | –
CC(C)C1CN(C)c2cccc3cc(-c4nc5cc(C(=O)N6C[C@H]7CC[C@@H]6[C@@H]7N)cc(F)c5n4C)n1c23 (stereo partly drawn) [Example 107, ((1R,4R,7R)-7-amino-2-azabicyclo[2.2.1]heptan-2-yl)(7-fluoro-2-(3-isopropyl-1-methyl-2,3-dihydro-1H-pyrrolo[1,2,3-de]quinoxalin-5-yl)-1-methyl-1H-benzo[d]imidazol-5-yl)methanone] | 6.30 to 7.00 | 6.30 to 7.00 | – | –
COc1cc(C(=O)N2C[C@H](N)C[C@@H](F)C2)cc2nc(-c3cc4cccc5c4n3CCN5CCCO)n(CC3CC(F)(F)C3)c12 [Example 50, ((3R,5R)-3-amino-5-fluoropiperidin-1-yl)(1-((3,3-difluorocyclobutyl)methyl)-2-(1-(3-hydroxypropyl)-2,3-dihydro-1H-pyrrolo[1,2,3-de]quinoxalin-5-yl)-7-methoxy-1H-benzo[d]imidazol-5-yl)methanone] | 6.30 to 7.00 | ≥ 7.00 | – | –
CCC1CN(CCCOC)c2cccc3cc(-c4nc5cc(C(=O)N6C[C@H]7CC[C@@H]6[C@@H]7N)cc(F)c5n4CC)n1c23 (stereo partly drawn) [Example 100, ((1R,4R,7R)-7-amino-2-azabicyclo[2.2.1]heptan-2-yl)(1-ethyl-2-(3-ethyl-1-(3-methoxypropyl)-2,3-dihydro-1H-pyrrolo[1,2,3-de]quinoxalin-5-yl)-7-fluoro-1H-benzo[d]imidazol-5-yl)methanone] | 6.30 to 7.00 | 6.30 to 7.00 | – | –
CCC1CN(CCCO)c2cccc3cc(-c4nc5cc(C(=O)N6C[C@H]7CC[C@@H]6[C@@H]7N)cc(F)c5n4C)n1c23 (stereo partly drawn) [Example 69, ((1R,4R,7R)-7-amino-2-azabicyclo[2.2.1]heptan-2-yl)(2-(3-ethyl-1-(3-hydroxypropyl)-2,3-dihydro-1H-pyrrolo[1,2,3-de]quinoxalin-5-yl)-7-fluoro-1-methyl-1H-benzo[d]imidazol-5-yl)methanone] | ≥ 7.00 | ≥ 7.00 | – | –
Cn1c(-c2cc3ccc4c(c3n2CC2CC2)NCCO4)nc2cc(C(=O)N3C[C@H]4CC[C@@H]3[C@@H]4N)cc(F)c21 [Example 158, ((1R,4R,7R)-7-amino-2-azabicyclo[2.2.1]heptan-2-yl)(2-(9-(cyclopropylmethyl)-1,2,3,9-tetrahydro-[1,4]oxazino[2,3-g]indol-8-yl)-7-fluoro-1-methyl-1H-benzo[d]imidazol-5-yl)methanone] | ≥ 7.00 | ≥ 7.00 | – | –
CC[C@H]1CN(CCCO)c2cccc3cc(-c4nc5cc(C(=O)N6C[C@H]7CC[C@@H]6[C@@H]7N)cc(F)c5n4C)n1c23 [Example 71, ((1R,4R,7R)-7-amino-2-azabicyclo[2.2.1]heptan-2-yl)(2-((S)-3-ethyl-1-(3-hydroxypropyl)-2,3-dihydro-1H-pyrrolo[1,2,3-de]quinoxalin-5-yl)-7-fluoro-1-methyl-1H-benzo[d]imidazol-5-yl)methanone] | ≥ 7.00 | ≥ 7.00 | more potent | –
CCC1CN(CCCO)c2cccc3cc(-c4nc5cc(C(=O)N6C[C@H](N)C[C@@H](F)C6)cc(OC)c5n4C)n1c23 (single isomer, unassigned) [Example 81] | – | 5.30 to 6.30 | – | < 5.30
CCC1CN(CCCO)c2cccc3cc(-c4nc5cc(C(=O)N6C[C@H]7CC[C@@H]6[C@@H]7N)cc(OC)c5n4C)n1c23 (stereo partly drawn) [Example 85, ((1R,4R,7R)-7-amino-2-azabicyclo[2.2.1]heptan-2-yl)(2-(3-ethyl-1-(3-hydroxypropyl)-2,3-dihydro-1H-pyrrolo[1,2,3-de]quinoxalin-5-yl)-7-methoxy-1-methyl-1H-benzo[d]imidazol-5-yl)methanone] | ≥ 7.00 | 6.30 to 7.00 | – | –
CCC1CN(CCC(N)=O)c2cccc3cc(-c4nc5cc(C(=O)N6C[C@H](N)C[C@@H](F)C6)cc(OC)c5n4C)n1c23 (stereo partly drawn) [Example 94, 3-(5-(5-((3R,5R)-3-amino-5-fluoropiperidine-1-carbonyl)-7-methoxy-1-methyl-1H-benzo[d]imidazol-2-yl)-3-ethyl-2,3-dihydro-1H-pyrrolo[1,2,3-de]quinoxalin-1-yl)propanamide] | 6.30 to 7.00 | ≥ 7.00 | – | –
